The values that follow come from US20090005398A1, “Methods For The Treatment of Central Nervous System Tumors” (priority 2007, published 2009).

pIC50: −log10 of the molar value. Where only a bound is given, the exact number is not on record here.

The test system of one data set is A549. The data set is described as follows: Methylene blue growth inhibition assay. Conditions: Homo sapiens, 72 h. It counts as cell-based. As for the experimental part:
(§1) Generally, exponentially growing cell lines of different tumor origins, cultured in appropriate media containing 10% fetal bovine serum at 37° C. in a 5% CO2 incubator were plated at low density (less than 2000 cells/well) in 96-well plates. Twenty four hours post-plating, cells were treated with different concentrations of compound ranging from 10 uM to 0.04 nM. Several wells were left untreated as a control. Seventy two hours post-treatment, cell numbers were determined using 100 μl per well of methylene blue (Sigma M9140) (0.5% in 50:50 Ethanol:water). Stain was incubated at room temperature for 30 minutes before plates were rinsed and dye solubilized in 1% N-lauroyl sarcosine, sodium salt, (Sigma L5125, in PBS) (further details of a methylene blue assay are described below). Plates were read on a microplate reader, measuring the OD at 620 nm.
(§2) Concentration of test compound that inhibited 50% of cell growth (IC50) was determined by 4 parameter fit of data using XLfit, (value of no cell control was subtracted from all samples for background). The data are shown in Table 1 below and represent a compilation of several different experiments, each performed using the general parameters outlined above, although minor variations may have been employed in some instances.
(§3) In one assay, normal human foreskin fibroblasts (HFF), human colon (HCT116, RKO), lung (H460, A549) and breast (MCF7) tumor cell lines were cultured in high glucose DMEM (Life Technologies) containing 10% fetal bovine serum (FBS) at 37° C. in a humidified 5% CO2, 95% air incubator. Cells were harvested using trypsin/EDTA, counted using a haemocytometer, and plated in 100 μL of culture media per well, at the following densities, in a 96-well tissue culture plate (Falcon 3075): HFF 5,000 cells/well, HCT116 3,000 cells/well, RKO 2,500 cells/well, H460 2,500 cells/well, A549 5,000 cells/well, MCF7 4,000 cells/well. The next day, compound was diluted in low glucose DMEM containing 100 μg/mL gentamicin, at twice the final required concentration, from 10 mM stock solutions in DMSO. 100 μL/well of these dilutions were added to the 100 μL of media currently in the assay plates. Medium containing 0.6% DMSO was added to control wells. The final concentration of DMSO in all wells was 0.3%. Cells were incubated at 37° C., 5% CO2 for 72 h. Medium was removed by aspiration. Cell biomass was estimated by staining cells with 80 μL per well methylene blue (Sigma M9140, 0.5% in 50:50 ethanol:water), and incubation at room temperature for 30-60 min. Stain was removed by aspiration and the plates rinsed by immersion in water, then air-dried. To release stain from the cells, 100 μL of solubilization solution was added (1% N-lauroyl sarcosine, Sodium salt, Sigma L5125, in PBS), and plates were shaken gently for about 30 min. Optical density at 620 nm was measured on a microplate reader. Percent inhibition of cell growth was calculated relative to vehicle treated control wells. Concentration of compound that inhibits 50% of cell growth (IC50) was interpolated using nonlinear regression (Levenberg-Marquardt) and the equation, y=Vmax*(1−(x/(K+x)))+Y2, where “K” was equal to the IC50.

The subject of the next data set is H460. The data set is described as follows: Methylene blue growth inhibition assay. To be noted: Homo sapiens, NCI-H460, 72 h. It counts as cell-based. As for the experimental part: as §1, §2, §3
A further data set relates to HCT116. Put plainly: Methylene blue growth inhibition assay. It counts as cell-based. Conditions: Homo sapiens, HCT-116, 72 h. As for the experimental part:
as §1, §2, §3

Data set [1] concerns HFF (normal human foreskin fibroblasts). The data set is described as follows: Methylene blue growth inhibition assay. It counts as cell-based. Conditions: Fibroblast, 72 h. As for the experimental part: as §1, §2, §3
Another data set has as its system MCF7. The data set is described as follows: Methylene blue growth inhibition assay. The format is cell-based. To be noted: Homo sapiens, 72 h. How it is done:
as §1, §2, §3

In a further data set the test system is RKO. Put plainly: Methylene blue growth inhibition assay. The format is cell-based. Conditions: Homo sapiens, 72 h. As for the experimental part:
as §1, §2, §3

Data set [2] can be described thus: Protein binding to human plasma proteins by equilibrium dialysis. It counts as in vitro ADME. Conditions: pH 7.4, equilibrium dialysis 6 h, 37° C. As for the experimental part: 96 Well Plate (High Throughput Dialysis): Stock solution of compound was spiked into human plasma at a target concentration of 2000 ng/mL. The mixture was inverted gently several times to insure homogeneity and triplicate 50 μL aliquots were collected to verify initial concentrations. Following assembly of dialysis plate (HTDialysis membrane strips, molecular weight cut off limit of 12,000-14,000 daltons), spiked plasma (150 μL) was placed in the donor compartment of the well and Phosphate Buffered Saline pH 7.4 (150 μL) in the receiver compartment. Eight wells were set up per compound and plasma type. Plate was placed in a 37° C. incubator on a plate shaker. Following the 6 h incubation period, the plate was removed. Single 50 μL aliquots from each donor and receiver compartment (per well) were analyzed.
Sample analysis was by LC/MS/MS (results reported as Drug Peak Area/Internal Standard Peak Area ratios). Protein binding assay can also be performed using dialysis cells instead of HT Dialysis 96 well plates. In Table 1, % Protein Binding, +=>98%; ++=95-98%: +++=<95%.

Data set [3] in a line: High throughput solubility assay. The format is physicochemical. Conditions: aqueous buffer, pH 7.4, 0.05M phosphate buffer. As for the experimental part: Two samples are prepared. One (the standard sample) contains the compound at a fixed concentration of 20 μM in an aqueous/organic mixed solvent cocktail. The other (the test sample) contains the compound at a maximum concentration of 200 μM in pH 7.4, 0.05M phosphate buffer and shaking for 24 h. The test sample is filtered by 0.45μ filter and then spun for 10 min to remove any undissolved solid. HPLC analyses are preformed on these samples. The peak areas are used for computing solubility.

The subject of a further data set is SF-268. The data set is described as follows: Washout assay, recovery of cell growth (MTT). The format is cell-based. To be noted: SF-268, glioblastoma; 3 days exposure then washout. How it is done: (§4) Seven glioma cell lines that can double at least once over three days were thawed and grown to 70-80% confluency before being used in the assay. On day 1, for each cell line, 2-3×10^5 cells were seeded into each well in 6-well cell culture plates and incubated at 37° C. overnight. […] The plates were incubated at 37° C. for 3 days.
(§5) On day 5, the compound was efficiently washed four times with culture medium supplemented with 20% fetal bovine serum (FBS) and then washed once in buffered saline solution (PBS). The cells were trypsinized. For each of the concentrations, compound-treated cell lines were plated into five 96-well plates at 5000 cells per well. For the next 4 consecutive days, one plate of the cells was taken out of the incubator and cell proliferation was measured by MTT ELISA assay.
(§6) The washout assay is designed to follow the cells' recovery from exposure to the compound. Each glioma cell line was assayed at least twice. The criteria for evaluating sensitivity or resistance was Last Growth Back Concentration (LGC), if LGC<=30 nM, the cell line is considered sensitive; if LGC>=1 uM, it is considered resistant; if LGC is in between these two concentrations, the cell line is considered intermediate. Based on criteria set, all the glioma cell lines appeared to be sensitive to the compound of Example 1.

The next data set concerns SF-295. The data set is described as follows: Washout assay, recovery of cell growth (MTT). The format is cell-based. Conditions: SF-295, glioblastoma; 3 days exposure then washout. As for the experimental part:
as §4, §5, §6

For the molecule `C[C@@H](Oc1cc(-n2cnc3ccc(CN4CCN(C)CC4)cc32)sc1C(N)=O)c1ccccc1C(F)(F)F` [Example 1, 5-{6-[(4-Methylpiperazin-1-yl)methyl]-1H-benzimidazol-1-yl}-3-{(1R)-1-[2-(trifluoromethyl)phenyl]ethoxy}thiophene-2-carboxamide], the pIC50 (in the data set with A549; in the data set with H460; with HCT116; in data set [1]; with MCF7; with RKO) was greater than 7.00 throughout. The fraction unbound at 6 h, 2000 ng/mL in data set [2] was greater than 0.05. The solubility at 24 h in [3] was greater than 100 µM. Also, the “LGC (Last Growth Back Concentration)” value with SF-268 and with SF-295 was 10 nM in each case.
